According to ChEMBL document CHEMBL3132783, “Design, synthesis and biological evaluation of novel ligustrazinylated derivatives as potent cardiovascular agents” (Medchemcomm, 2013):

Experiments:
[1] = Antiplatelet activity in rabbit platelet rich plasma assessed as inhibition of ADP-induced aggregation at 0.4 mM treated for 5 mins prior to ADP-challenge relative to control; assay type: functional; details: Oryctolagus cuniculus
[2] = Antiplatelet activity in rabbit platelet rich plasma assessed as inhibition of ADP-induced aggregation treated for 5 mins prior to ADP-challenge; assay type: functional; details: Oryctolagus cuniculus
[3] = Cytoprotective activity in H2O2-induced human ECV304 cells assessed as proliferation rate at 50 uM incubated for 24 hrs prior to H2O2-challenge measured after 12 hrs by MTT assay relative to control; assay type: functional; details: ECV-304, read-out: Activity
[4] = Cytoprotective activity in H2O2-induced human ECV304 cells assessed as proliferation rate at 12.5 uM incubated for 24 hrs prior to H2O2-challenge measured after 12 hrs by MTT assay relative to control; assay type: functional; details: ECV-304, read-out: Activity
[5] = Cytoprotective activity in H2O2-induced human ECV304 cells assessed as proliferation rate at 25 uM incubated for 24 hrs prior to H2O2-challenge measured after 12 hrs by MTT assay relative to control; assay type: functional; details: ECV-304, read-out: Activity
[6] = Cytoprotective activity in H2O2-induced human ECV304 cells assessed as proliferation rate at 100 uM incubated for 24 hrs prior to H2O2-challenge measured after 12 hrs by MTT assay relative to control; assay type: functional; details: ECV-304, read-out: Activity
[7] = Antiplatelet activity in rabbit platelet rich plasma assessed as inhibition of ADP-induced aggregation at 0.1 mM treated for 5 mins prior to ADP-challenge relative to control; assay type: functional; details: Oryctolagus cuniculus
[8] = Antiplatelet activity in rabbit platelet rich plasma assessed as inhibition of ADP-induced aggregation at 0.2 mM treated for 5 mins prior to ADP-challenge relative to control; assay type: functional; details: Oryctolagus cuniculus
[9] = Antiplatelet activity in rabbit platelet rich plasma assessed as inhibition of ADP-induced aggregation at 0.05 mM treated for 5 mins prior to ADP-challenge relative to control; assay type: functional; details: Oryctolagus cuniculus
[10] = Cytoprotective activity in H2O2-induced human ECV304 cells assessed as proliferation rate incubated for 24 hrs prior to H2O2-challenge measured after 12 hrs by MTT assay; assay type: functional, cell-based; details: ECV-304
ECV-304 = assay: Ratio of ligustrazine EC50 to compound EC50 for human ECV304 cells; assay type: functional

| SMILES | inhibition at 400 µM [1] [%] | IC50 [2] [µM] | growth at 50 µM [3] [%] | growth at 12.5 µM [4] [%] | growth at 25 µM [5] [%] | growth at 100 µM [6] [%] | inhibition at 100 µM [7] [%] | inhibition at 200 µM [8] [%] | inhibition at 50 µM [9] [%] | EC50 [10] [µM] | Ratio EC50 (ECV-304) |
| --- | --- | --- | --- | --- | --- | --- | --- | --- | --- | --- | --- |
| Cc1nc(C)c(COc2ccc3ccc(=O)oc3c2)nc1C | 39.2 | 1300 | 44.2 | 38.8 | 42 | 46.6 | 25 | 35.1 | 21.7 | 140 |  |
| Cc1nc(C)c(CSc2nnnn2-c2ccccc2)nc1C | 9.33 | > 2000 | -78.4 | -135 | -119 | -136 | 12.3 | 4.93 | -4.07 |  |  |
| Cc1nc(C)c(CSc2nnnn2-c2cccc3ccccc23)nc1C | 13.1 | > 2000 |  |  |  |  | 10.2 | 5.75 | 2.25 |  |  |
| CSc1snc(OCc2nc(C)c(C)nc2C)c1C#N | 32.2 | 1500 | 160 |  | 25.2 |  | 13.5 | 22.6 | 3.36 | > 100000 |  |
| Cc1nc(C)c(Cn2nnc3ccccc32)nc1C | 28.3 | 1800 | -96.5 | 23.2 | 25.1 | -178 | 7.23 | 16.9 | -2.21 | > 100000 |  |
| Cc1nc(C)c(Cn2cnc3ccccc32)nc1C | 30.9 | 1900 | 0.25 | -91.8 | -13.8 |  | 11 | 13.1 | -0.97 |  |  |
| Cc1nc(C)c(CNC(=O)CN2CCCC2=O)nc1C | 36 | 1200 | 23.4 | -35.8 | 14.5 | 26.4 | 10.4 | 19.6 | 3.23 | 1300 |  |
| Cc1nc(C)c(COC(=O)CCCC[C@@H]2CCSS2)nc1C | 27.6 | > 2000 | 160 | -60 | 71.4 | 206 | 13.4 | 29 | 18.8 | 4 | 150 |
| C=CCSSCc1nc(C)c(C)nc1C | 38.1 | 1300 | 15 | 13 | -17.6 | 51.1 | 18 | 30.4 | 16.7 | 1100 |  |
| C=CCc1ccc(OCc2nc(C)c(C)nc2C)c(OC)c1 | 6.42 | > 2000 | 30.1 | 22 | 28.2 | 36 | 1.45 | 12.3 | -4.29 | 200 |  |
| Cc1nc(C)c(COc2ccc3c(C)cc(=O)oc3c2)nc1C | 40.1 | 920 | 25.8 | 12 | 21 | 36.6 | 8.73 | 17.2 | 2.27 | 140 |  |
| Cc1nc(C)c(CSc2nnc(-c3cccs3)n2N)nc1C | 38.5 | 810 | 38.2 | 36.2 | 37.4 | 40.2 | 13.4 | 23.2 | 0.15 | 330 |  |
| Cc1nc(C)c(CSc2nc(C)c(CC(=O)O)s2)nc1C | 46.9 | 620 | 47 | 44.9 | 46.2 | 48.1 | 35 | 38.3 | 27.5 | 150 |  |
| Cc1nc(C)c(CSc2nnnn2C)nc1C | 9.95 | > 2000 | -77 |  | -180 | -117 | 4.04 | 13.5 | 1.53 |  |  |
| Cc1nc(C)c(CSc2nc3ccccc3s2)nc1C | 33.4 | 1600 | 9.51 | 4.33 | 7.95 | 17.2 | 13.4 | 20.9 | 5.12 | 360 |  |
| Cc1nc(C)c(CSc2nnc(-c3ccco3)n2N)nc1C | 35.6 | 940 | 23.5 | 19 | 21.3 | 25.8 | 10.4 | 20 | -2.62 | 420 |  |
| CCOC(=O)c1ccccc1OCc1nc(C)c(C)nc1C | 21.2 | 2000 | 19.2 | 17.3 | 18.1 | 20 | 10.8 | 16.8 | 8.7 | 1000 |  |
| CCOC(=O)c1ccc(OCc2nc(C)c(C)nc2C)c(OC)c1 | -3.31 | > 2000 | 15.8 | 14.9 | 15.5 | 16 | 3.1 | 7.48 | 9.7 | 3200 |  |
| Cc1nc(C)c(COc2ccccc2C(=O)O)nc1C | 51.7 | 400 | 18.2 | 14.1 | 17.4 | 20 | 32 | 34.6 | 15.6 | 610 |  |
| COc1cc(C(=O)O)ccc1OCc1nc(C)c(C)nc1C | 4.41 | > 2000 | 18.4 | 15.1 | 16.4 | 19 | 1.01 | -11.2 | 11.2 | 810 |  |
| Cc1nc(C)c(C)nc1C [LIGUSTRAZINE] |  |  | 22.1 | 10.4 | 12.7 | 42.8 |  |  |  | 600 |  |
| O=C(O)CCCCC1CCSS1 (stereo not drawn) [LIPOIC ACID, ALPHA] |  |  | 48.7 | 30.5 | -12.3 | 58.1 |  |  |  | 68 |  |
| O=C(O)/C=C/c1ccc(Cn2ccnc2)cc1 [OZAGREL] | 55.3 | 360 |  |  |  |  | 27.3 | 45.4 | 23.3 |  |  |
